Laboratory results: patent US9163021B2, “Pyrrolo[3,2-c]pyridine tropomyosin-related kinase inhibitors” (Pfizer Limited, priority 2012, dated 2015)

Target: TRKA (Homo sapiens (Human), UniProt P04629)
Assay: Isolated TRK enzyme assay (HTRF KinEASE-TK), PV3144 TrkA enzyme assay
Format: biochemical
Settings: arithmetic mean where more than one reading
Summary of the method: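 Kinase (recombinant His-TrkA cytoplasmic domain, ATP-preactivated 20 min) met compound 20 min, then biotinylated TK substrate (1 µM final) with Mg2+/DTT buffer; HTRF detection.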

Sequence of TRKA (P04629 441-796): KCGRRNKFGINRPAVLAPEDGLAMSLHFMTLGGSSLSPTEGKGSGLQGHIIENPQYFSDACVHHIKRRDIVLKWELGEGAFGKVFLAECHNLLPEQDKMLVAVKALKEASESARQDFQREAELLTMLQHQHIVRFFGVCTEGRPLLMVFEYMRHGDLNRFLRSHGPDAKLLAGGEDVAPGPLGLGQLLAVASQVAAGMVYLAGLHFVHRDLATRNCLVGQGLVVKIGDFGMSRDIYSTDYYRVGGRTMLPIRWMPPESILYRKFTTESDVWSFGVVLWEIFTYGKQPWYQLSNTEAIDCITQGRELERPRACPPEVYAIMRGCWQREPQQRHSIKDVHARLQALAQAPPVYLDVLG

IC50 | Structure (SMILES)
0.024 µM | CC(C)(CO)n1cc(C(=O)c2cncc(NC(=O)Cn3cc(C4CC4)nn3)c2)c2cncc(F)c21 [Example 240, 2-(4-cyclopropyl-1H-1,2,3-triazol-1-yl)-N-(5-{[7-fluoro-1-(1-hydroxy-2-methylpropan-2-yl)-1H-pyrrolo[3,2-c]pyridin-3-yl]carbonyl}pyridin-3-yl)acetamide]
0.174 µM | Cc1oc(C2CC2)nc1CC(=O)Nc1cc(C(=O)c2cn(C3COC3)c3ccncc23)ccn1 [Example 200, 2-(2-cyclopropyl-5-methyl-1,3-oxazol-4-yl)-N-(4-{[1-(oxetan-3-yl)-1H-pyrrolo[3,2-c]pyridin-3-yl]carbonyl}pyridin-2-yl)acetamide]
0.0594 µM | O=C(Cc1ccc(Cl)cc1)Nc1cc(C(=O)c2cn(CCO)c3ccncc23)ccn1 [Example 146, 2-(4-chlorophenyl)-N-(4-{[1-(2-hydroxyethyl)-1H-pyrrolo[3,2-c]pyridin-3-yl]carbonyl}pyridin-2-yl)acetamide]
1.28 µM | O=C(Cc1ccc(F)cn1)Nc1cc(C(=O)c2cn(C3COC3)c3ccncc23)ccn1 [Example 196, 2-(5-fluoropyridin-2-yl)-N-(4-{[1-(oxetan-3-yl)-1H-pyrrolo[3,2-c]pyridin-3-yl]carbonyl}pyridin-2-yl)acetamide]
0.0113 µM | CC(C)(CO)n1cc(C(=O)c2cc(NC(=O)Cc3cccc(C(F)(F)F)c3)ccn2)c2cnccc21 [Example 232, N-(2-{[1-(1-hydroxy-2-methylpropan-2-yl)-1H-pyrrolo[3,2-c]pyridin-3-yl]carbonyl}pyridin-4-yl)-2-[3-(trifluoromethyl)phenyl]acetamide]
0.101 µM | CC(CO)n1cc(C(=O)c2cncc(NC(=O)Cc3ccc(C#N)cc3)c2)c2cnccc21 (stereo not shown) [Example 67]
0.00632 µM | Cc1cc(C(F)(F)F)nn1CC(=O)Nc1cncc(C(=O)c2cn(C(C)(C)CO)c3c(F)cncc23)c1 [Example 1, N-{5-[7-Fluoro-1-(2-hydroxy-1,1-dimethyl-ethyl)-1H-pyrrolo[3,2-c]pyridine-3-carbonyl]-pyridin-3-yl}-2-(5-methyl-3-trifluoromethyl-pyrazol-1-yl)-acetamide]
4.34 µM | CC(C)n1cc(C(=O)c2cncc(NC(=O)Cc3cnccn3)c2)c2cnccc21 [Example 133, N-(5-{[1-(propan-2-yl)-1H-pyrrolo[3,2-c]pyridin-3-yl]carbonyl}pyridin-3-yl)-2-(pyrazin-2-yl)acetamide]
0.0204 µM | Cc1cc(C(F)(F)F)nn1CC(=O)Nc1cncc(C(=O)c2cn(C(C)CO)c3c(F)cncc23)c1 (single isomer, unassigned) [Example 216, N-(5-{[7-fluoro-1-(1-hydroxypropan-2-yl)-1H-pyrrolo[3,2-c]pyridin-3-yl]carbonyl}pyridin-3-yl)-2-[5-methyl-3-(trifluoromethyl)-1H-pyrazol-1-yl]acetamide]
0.0395 µM | Cc1cc(C(C)C)nn1CC(=O)Nc1cncc(C(=O)c2cn(C(C)C)c3ccncc23)c1 [Example 120, 2-(5-methyl-3-(propan-2-yl)-1H-pyrazol-1-yl]-N-(5-{[1-(propan-2-yl)-1H-pyrrolo[3,2-c]pyridin-3-yl]carbonyl}pyridin-3-yl)acetamide]

The remaining lines, values behind:

Structure (SMILES) | IC50
CC(CO)n1cc(C(=O)c2cncc(NC(=O)Cc3ccc(F)cn3)c2)c2cncc(F)c21 (single isomer, unassigned) [Example 218, N-(5-{[7-fluoro-1-(1-hydroxypropan-2-yl)-1H-pyrrolo[3,2-c]pyridin-3-yl]carbonyl}pyridin-3-yl)-2-(5-fluoropyridin-2-yl)acetamide] | 0.425 µM
CC(C)n1cc(C(=O)c2ccnc(NC(=O)Cc3ccc(C(F)(F)F)c(F)c3)c2)c2cnccc21 [Example 172, 2-(3-fluoro-4-(trifluoromethyl)phenyl]-N-(4-{[1-(propan-2-yl)-1H-pyrrolo[3,2-c]pyridin-3-yl]carbonyl}-pyridin-2-yl)acetamide] | 0.00849 µM
CC(CO)n1cc(C(=O)c2cc(NC(=O)Cc3cccc(C(F)(F)F)c3)ccn2)c2cnccc21 (single isomer, unassigned) [Example 229, N-(2-{[1-(1-hydroxypropan-2-yl)-1H-pyrrolo[3,2-c]pyridin-3-yl]carbonyl}pyridin-4-yl)-2-[3-(trifluoromethyl)phenyl]acetamide] | 0.2 µM
Cc1cc(C(F)(F)F)nn1CC(=O)Nc1cncc(C(=O)c2cn(C(C)C)c3c(F)cncc23)c1 [Example 32, N-(5-{[7-fluoro-1-(propan-2-yl)-1H-pyrrolo[3,2-c]pyridin-3-yl]carbonyl}pyridin-3-yl)-2-[5-methyl-3-(trifluoromethyl)-1H-pyrazol-1-yl]acetamide] | 0.0114 µM
CC(CO)n1cc(C(=O)c2cncc(NC(=O)Cc3ccc(Cl)cn3)c2)c2cncc(F)c21 (single isomer, unassigned) [Example 225, 2-(5-chloropyridin-2-yl)-N-(5-{[7-fluoro-1-(1-hydroxypropan-2-yl)-1H-pyrrolo[3,2-c]pyridin-3-yl]carbonyl}pyridin-3-yl)acetamide] | 0.0463 µM
CC(C)c1cn(CC(=O)Nc2cncc(C(=O)c3cn(C(C)(C)CO)c4ccncc34)c2)nn1 [Example 14, N-(5-{[1-(1-hydroxy-2-methylpropan-2-yl)-1H-pyrrolo[3,2-c]pyridin-3-yl]carbonyl}pyridin-3-yl)-2-[4-(propan-2-yl)-1H-1,2,3-triazol-1-yl]acetamide] | 0.00989 µM
CC(C)(CO)n1cc(C(=O)c2cncc(NC(=O)Cc3ccc(F)cn3)c2)c2cnccc21 [Example 16, 2-(5-fluoropyridin-2-yl)-N-(5-{[1-(1-hydroxy-2-methylpropan-2-yl)-1H-pyrrolo[3,2-c]pyridin-3-yl]carbonyl}pyridin-3-yl)acetamide] | 0.0182 µM
CC(C)n1cc(C(=O)c2ccnc(NC(=O)Cc3ccc(Cl)cc3)c2)c2cnccc21 [Example 103, 2-(4-chlorophenyl)-N-(4-{[1-(propan-2-yl)-1H-pyrrolo[3,2-c]pyridin-3-yl]carbonyl}pyridin-2yl)acetamide] | 0.0152 µM
CC(C)n1cc(C(=O)c2cncc(NC(=O)Cc3ccc(Cl)cn3)c2)c2cnccc21 [Example 22, 2-(5-chloropyridin-2-yl)-N-(5-{[1-(propan-2-yl)-1H-pyrrolo[3,2-c]pyridin-3-yl]carbonyl}pyridin-3-yl)acetamide] | 0.00964 µM
CC(C)n1cc(C(=O)c2cncc(NC(=O)Cc3nccn3C)c2)c2cnccc21 [Example 46, 2-(1-methyl-1H-imidazol-2-yl)-N-(5-{[1-(propan-2-yl)-1H-pyrrolo[3,2-c]pyridin-3-yl]carbonyl}pyridin-3-yl)acetamide] | 3.08 µM
CC(CO)n1cc(C(=O)c2cncc(NC(=O)Cc3ccc(C#N)cc3)c2)c2cncc(F)c21 (single isomer, unassigned) [Example 213, 2-(4-cyanophenyl)-N-(5-{[7-fluoro-1-(1-hydroxypropan-2-yl)-1H-pyrrolo[3,2-c]pyridin-3-yl]carbonyl}pyridin-3-yl)acetamide] | 0.252 µM
CC(C)n1cc(C(=O)c2cncc(NC(=O)Cc3nc(C(C)(C)C)nn3C)c2)c2cnccc21 [Example 42, 2-(3-tert-butyl-1-methyl-1H-1,2,4-triazol-5-yl)-N-(5-{[1-(propan-2-yl)-1H-pyrrolo[3,2-c]pyridin-3-yl]carbonyl}pyridin-3-yl)acetamide] | 0.179 µM
